According to patent publication US20030092692A1, “Cytoprotective steroids (II)” (priority 2000, published 2003):

Experiments:
[1] = test system: estrogenic activity; conditions: cited from earlier work
[2] = test system: CA1 pyramidal cell layer of organotypic hippocampal slice cultures; assay: Hypoxic challenge of organotypic hippocampal slice cultures (PI fluorescence); type: cell-based, Wistar rat; conditions: 180 min hypoxia, 24 h recovery, hypoxia control 27.6±3.7%
Protocol: Organotypic hippocampal slice cultures were prepared using the basic method of Pringle et al (1997) modified as follows:
Wistar rat pups (8-11 days old) were decapitated and the hippocampus rapidly dissected into ice-cold Goy's balanced salt solution supplemented with 4.5 mg/ml glucose. Slices were separated and plated into Millicell CM culture inserts (4 per well) and maintained at 37° C./5% CO2 for 14 days. Maintenance medium consisted of 25% heat-inactivated horse serum, 25% Hank's balanced salt solution (HBSS) and 50% minimum essential medium with added Earle's salts (MEM) supplemented with 1 mM glutamine and 4.5 mg/ml glucose.
Experimental hypoxia was performed as described previously (Pringle et al., (1996) Stroke 27, p2124-2130, (1997) Brain Research 755-46). Briefly, cultures were transferred to serum free medium (SFM—75% MEM, 25% HBSS supplemented with 1 mM glutamine and 4.5 mg/ml glucose) containing 5 μg/ml of the fluorescent exclusion dye propidium iodide (PI). Cultures were allowed to equilibrate in SFM for 60 minutes prior to imaging. PI fluorescence was detected using a standard Leica inverted microscope fitted with a rhodamine filter set (Leica N2). Any cultures in which PI fluorescence was detected at this stage were excluded from further study. Hypoxia was induced by transferring cultures to SFM (+PI) which had been saturated with 95% N2/5% CO2. Culture plates (without lids) were then sealed into an airtight chamber in which the atmosphere was saturated with 95% N2/5% CO2 by continuously blowing through gas at 1000 ml/min for ten minutes before being sealed and placed in the incubator for 170 mins (total time of hypoxia was therefore 180 mins). At the end of the hypoxia period cultures were returned to normoxic SFM containing PI and placed back in the incubator for 24 hours.
Neuronal damage was assessed as described previously (Pringle et al., 1996, 1997) using NIH Image 1.60 running on an Apple IIsi computer. Images were captured using a COHU monochrome camera and saved onto optical disk for offline analysis using NIH image. Light transmission images were captured prior to the addition of drugs, and PI fluorescence images recorded at the end of the 24 hour post-hypoxia recovery period. The areas of the CA1, CA3 and dentate gyrus (DG) cell layers were determined from the transmission image. The area of PI fluorescence in each of the cell layers was measured using the density slice function within NIH Image, and neuronal damage expressed as the percentage of the regional area in which PI fluorescence was detected above background.
Steroid compounds were prepared by making an initial 1 mg/ml solution in ethanol and further diluting down in SFM. Compounds were included in the cultures for 45 minutes prior to hypoxia, during the hypoxic episode and during the post-hypoxic recovery period. Control experiments consisted of cultures treated with vehicle alone.

[3] = test system: NMDA receptors; conditions: cited from earlier work
[4] = test system: Rat cortical neurons; assay: Glutamate induced neuronal cell death of primary cortical cultures (LDH release); type: cell-based, Wistar rat; conditions: for effect on normal cell death: without glutamate
Protocol: Rat cortical neurons were cultured by modification of the methods of Dichter (1973) Brain Res 149, p279-293 and Durkin et al (1996) J. Neurochem 66, p951-962. A female Wistar rat (Janvier, Le Genest-St-Isle, France: ref RJ WAF151) of 17 days gestation was killed by cervical disclocation, the foetuses removed on embryonoic day 17 and brains removed and placed in ice-cold calcium/magnesium free Hanks balanced salt solution (HBSS: Gibco Life Technologies, Cergy-Pontoise, France: ref 14170-088 batch 302790). Each cortex was dissected and meninges were carefully removed.
The cortical neurons were dissociated by trypsinization for 5 minutes at 37° C. (trypsin: 0.5 mg/ml: Difco, LPCR, Strasbourg: ref 0152-14 batch 128856JC) and the reaction stopped by addition of HBSS containing calcium and magnesium (HBSS+ Gibco ref 24020-091; batch 3010598) with 10% of fetal bovine serum FBS; Gibco; ref 1027-098; batch 40Q1681K and 1 mg/ml DNase I (Boehringer Mannheim, Meylan, France; ref 1284938; batch 14880300).
The suspension was triturated with a 10 ml pipette (stripette Costar, Dutscher, Brumath, France) and was added in a centrifuge tube (Tube 50 ml Corning, Dutscher) containing 20 ml HBSS^− with 3.5% of BSA (Sigma, L'Isle D'Abeau Chesnes, ref. A6003, batch 29H7606) and centrifuged at low speed (150×g) for 10 min (apparatus Sigma 2-15, Bioblock, Illkirch, France).
The cells were resuspended in Dulbecco's Modified Eagle Medium (DMEM; Gibco; ref. 41965-039; batch 3032129), containing 20% FBS. Viable cells were quantified and plated at 35,000/well in 96 well plates (Nunclon, Gibco) previously coated with poly-L-lysine (0.01 mg/ml, France; ref. P5899; batch 28H8504). Cells were allowed to adhere 2 h and maintained in a humidified incubator at 37° C. in 5% CO2-95% air atmosphere.
Culture medium was then changed to a medium consisting of DMEM, 10% heat-inactivated FBS, 10% heat-inactived horse serum (Gibco, ref. 16505-080; batch 3030347) and 1% L-Glutamine (Gibco, ref. 25030-024; batch 3031499).
Since the cultures were mixed populations containing both neurons and glial cells, to minimize glial growth, the cultures were treated for 2 days with 15 μg/ml of 5-fluoro-2′-deoxyuridine (Sigma; ref. F8791; batch 97H4048) and 35 μg/ml of uridine (Sigma, ref. U3003; batch 18H11965) on day 4 of culture.
Following exposure to mitotic inhibitors, one-half of the medium was removed and replaced with growth medium consisting of 89% DMEM, 10% horse serum and 1% L-glutamine.
Glutamate toxicity experiments were performed after 13 days in culture (Glutamic acid; Sigma, ref. G6904; batch 18H11381).
On day 12, twenty-four hours before glutamate exposure, cultures were washed with DMEM and placed in medium DMEM/Ham12 with supplements but without estradiol.
The reference compounds, estradiol (Sigma, ref. E8875; batch 98H40953) and DHEA (Sigma, ref. D4000; batch 97H0301), and test compound were added at concentrations of 2, 10, 50 and 100 nM. Human FGF-basic (Tebu, Le Perray-en-Yvelines, France; ref. 100-18B; batch 107R0806 E118) was included as an additional reference and was tested at 5, 10 and 20 ng/ml. All compounds were dissolved at 10 mM in ethanol 100% (LPCR, ref. 20821467; batch J109), diluted 10,000 fold in DMEM and stocked at −20° C.
The effect of the test molecule on survival of cultured neurones was investigated alone and in intoxication conditions. The effect of the ethanol was also tested at the highest concentration used for dilution of the test molecules (100 nM=0.001% ethanol).
On day 13, cultures were exposed to glutamate 0.50, 100, 150, 200, 250, 300, 400 and 500 μM for 10 min at 37° C. in DMEM/hamF12 with supplement. The effects of the 2 reference compounds and the test compound was investigated in the presence of glutamate.
After the incubation period, the cultures were washed with DMEM and placed in DMEM/Ham12 with supplement either in the absence or presence of the compound to evaluate their post intoxication effects. […]

C[C@]12CC[C@@H]3c4ccc(O)cc4C[C@@H](O)[C@H]3[C@@H]1CC[C@@H]2O [7α-hydroxy-estradiol, Estra-1,3,5(10)-triene 3,7α,17β-triol]
estrogenic activity as fraction of that of estrone [1]: 1/300 | neuronal damage: PI fluorescence as % of CA1 ([2]; 1 nM): 21.5±11.3% | neuronal damage: PI fluorescence as % of CA1 ([2]; 10 nM): 13.0±4.7% | neuronal damage: PI fluorescence as % of CA1 ([2]; 100 nM): 5.9±2.1%

CC(=O)[C@H]1CC[C@H]2[C@@H]3C(=O)C=C4C[C@@H](OS(=O)(=O)O)CC[C@]4(C)[C@H]3CC[C@]12C [7-keto-pregnenolone sulphate]
decrease of NMDA response [3]: 12%

CC(=O)[C@H]1CC[C@H]2[C@@H]3[C@H](O)C=C4C[C@@H](O)CC[C@]4(C)[C@H]3CC[C@]12C [7α-hydroxy-pregnenolone]
neuronal damage: PI fluorescence as % of CA1 ([2]; 100 nM): 11.6±4.0% | less cell death in presence of glutamate ([4]; 10 nM, glutamate 200 μM): up to 10%

C[C@]12CC[C@H](O)CC1=C[C@@H](O)[C@@H]1[C@@H]2CC[C@]2(C)C(=O)CC[C@@H]12 [7α-hydroxy-DHEA]
neuronal damage: PI fluorescence as % of CA1 ([2]; 10 nM): 1.1±0.9% | neuronal death in CA1 ([2]; concentration not given): 4.3±1.3% | effect on normal cell death ([4]; 10 nM): significantly decreased normal cell death

3α-hydroxy-5β-pregnan-20-one sulphate
decrease of NMDA response [3]: 76%

CC12CCC3c4ccc(O)cc4CC(=O)C3C1CCC2O (stereo not shown) [7-keto-estradiol]
estrogenic activity as fraction of that of estrone [1]: 1/300

C[C@]12CC[C@@H]3c4ccc(O)cc4CC[C@H]3[C@@H]1CC[C@@H]2O [estradiol]
effect on cell death in glutamate toxicity assay (FIG. 3) ([4]; primary cortical neurones): no effect

C[C@]12CC[C@H](O)CC1=CC[C@@H]1[C@@H]2CC[C@]2(C)C(=O)CC[C@@H]12 [DHEA]
effect on normal cell death ([4]; 10 nM): protect significantly | effect on normal cell death ([4]; 50 nM): protect significantly | protection of cortical neurones from glutamate neurotoxicity ([4]; doses of 0, 50 and 100 nM, glutamate 200 μM): failing to protect
